Experimental data reported in PMC4839570, “Novel Anthra[1,2-c][1,2,5]Thiadiazole-6,11-Diones as Promising Anticancer Lead Compounds: Biological Evaluation, Characterization & Molecular Targets Determination” (PLoS ONE, 2016).
Read-outs that look alike come from different tables or passages of the source.

Tests used:
MOLT-4 = assay: NCI-60 cytotoxicity screen; format: cell-based
SR = assay: NCI-60 cytotoxicity screen; format: cell-based; details: Homo sapiens, Fig 7, read-out: mean log10 of the GI50 values (converted)
HOP-62 = assay: NCI-60 cytotoxicity screen; format: cell-based
NCI-H23 [1] = assay: NCI-60 cytotoxicity screen; format: cell-based
NCI-H322M = assay: NCI-60 cytotoxicity screen; format: cell-based
HCC-2998 = assay: NCI-60 cytotoxicity screen; format: cell-based
HCT-15 [2] = assay: NCI-60 cytotoxicity screen; format: cell-based
HT29 = assay: NCI-60 cytotoxicity screen; format: cell-based
SF-295 = assay: NCI-60 cytotoxicity screen; format: cell-based
U251 = assay: NCI-60 cytotoxicity screen; format: cell-based
LOX IMVI = assay: NCI-60 cytotoxicity screen; format: cell-based
OVCAR-5 = assay: NCI-60 cytotoxicity screen; format: cell-based
A498 = assay: NCI-60 cytotoxicity screen; format: cell-based
MCF7 = assay: NCI-60 cytotoxicity screen; format: cell-based
HBC-4 = assay: JFCR-39 cytotoxicity screen; format: cell-based
HBC-5 = assay: JFCR-39 cytotoxicity screen; format: cell-based
MDA-MB-231 = assay: JFCR-39 cytotoxicity screen; format: cell-based
HCT-15 [3] = assay: JFCR-39 cytotoxicity screen; format: cell-based
NCI-H23 [4] = assay: JFCR-39 cytotoxicity screen; format: cell-based
NCI-H226 = assay: JFCR-39 cytotoxicity screen; format: cell-based
A549 = assay: JFCR-39 cytotoxicity screen; format: cell-based
DMS114 = assay: JFCR-39 cytotoxicity screen; format: cell-based
OVCAR-4 = assay: JFCR-39 cytotoxicity screen; format: cell-based
RXF-631L = assay: JFCR-39 cytotoxicity screen; format: cell-based
ACHN = assay: JFCR-39 cytotoxicity screen; format: cell-based
MKN7 = assay: JFCR-39 cytotoxicity screen; format: cell-based
DU-145 = assay: JFCR-39 cytotoxicity screen; format: cell-based
[5] = tested on: NF-κB p65 subunit translocation in OVCAR-3 cells; assay: NF-κB inhibition by immunocytochemical fluorescent staining; format: cell-based, human; details: 5 μM
Procedure: Inhibition of NF-κB was detected according to Ataie-Kachoie et al.. Briefly, each group of tested cells were seeded on coverslips treated with HCl and ethanol, and autoclaved prior to use. Immunostaining of the p65 subunit of NF-κB was done by permeabilizing the cells with Triton […], then by treating the cells with anti-NF-κB p65 rabbit monoclonal primary antibody [E379] Abcam # ab32536, followed by Alexa Fluor® 488 Donkey anti-rabbit IgG secondary antibody Biolegend # 406416. Nuclei of cells were stained with 4',6-diamidino-2-phenylindole (DAPI). Images were acquired using fluorescence microscope. Tested cells were divided into five groups which are no treatment control, no primary antibody control, PDTC (50 μM) treated control, NSC745885 (5 μM) and NSC757963 (5 μM) treated controls.

[6] = Homo sapiens, Fig 7, read-out: mean log10 of the GI50 values (converted)
[7] = Homo sapiens, five-dose, read-out: GI50
[8] = Homo sapiens, five-dose, read-out: LC50 (the source's name)
[9] = Homo sapiens, read-out: LC50 (the source's name)

SMILES: O=C1c2ccccc2C(=O)c2c1ccc1nsnc21 [NSC745885, anthra[1,2-c][1,2,5]thiadiazole-6,11-dione]
- GI50 (MOLT-4; [6]): 891 nM
- GI50 (MOLT-4; [7]): 490 nM
- CC50 (MOLT-4; [8]): 4.71 µM
- TGI (MOLT-4; five-dose): 1.84 µM
- GI50 (SR): 6.92 µM
- GI50 (HOP-62; [6]): 2140 nM
- GI50 (HOP-62; [7]): 1280 nM
- CC50 (HOP-62; [8]): 8.53 µM
- inhibition at 10 µM (HOP-62; Homo sapiens, single dose 10 μM, read-out: growth inhibition): 100%
- TGI (HOP-62; five-dose): 3.31 µM
- GI50 (NCI-H23 [1]; [6]): 1070 nM
- GI50 (NCI-H23 [1]; [7]): 1440 nM
- CC50 (NCI-H23 [1]; [8]): > 100 µM
- TGI (NCI-H23 [1]; five-dose): 6.04 µM
- GI50 (NCI-H322M; [6]): 36.3 µM
- GI50 (NCI-H322M; [7]): 17.4 µM
- CC50 (NCI-H322M; [8]): > 100 µM
- TGI (NCI-H322M; five-dose): 47.8 µM
- GI50 (HCC-2998; [6]): 5.89 µM
- LC50 (concentration causing 50% net cell kill) (HCC-2998; Homo sapiens, five-dose): 66.6 µM
- GI50 (HCC-2998; [7]): 16.4 µM
- TGI (HCC-2998; five-dose): 33.1 µM
- GI50 (HCT-15 [2]; [6]): 2040 nM
- GI50 (HCT-15 [2]; [7]): 1710 nM
- CC50 (HCT-15 [2]; [8]): 8.12 µM
- TGI (HCT-15 [2]; five-dose): 3.72 µM
- GI50 (HT29; Homo sapiens, HT-29, Fig 7, read-out: mean log10 of the GI50 values (converted)): 6.03 µM
- GI50 (HT29; Homo sapiens, HT-29, five-dose, read-out: GI50): 13.4 µM
- CC50 (HT29; Homo sapiens, HT-29, five-dose, read-out: LC50 (the source's name)): > 100 µM
- TGI (HT29; five-dose): 50.4 µM
- GI50 (SF-295; [6]): 2400 nM
- GI50 (SF-295; [7]): 1900 nM
- CC50 (SF-295; [8]): 8.56 µM
- TGI (SF-295; five-dose): 4.04 µM
- GI50 (U251; Homo sapiens, U-251, Fig 7, read-out: mean log10 of the GI50 values (converted)): 2510 nM
- GI50 (U251; Homo sapiens, U-251, five-dose, read-out: GI50): 1610 nM
- CC50 (U251; Homo sapiens, U-251, five-dose, read-out: LC50 (the source's name)): 5.44 µM
- TGI (U251; five-dose): 2.96 µM
- GI50 (LOX IMVI; Homo sapiens, LOXIMVI, Fig 7, read-out: mean log10 of the GI50 values (converted)): 912 nM
- GI50 (LOX IMVI; [7]): 820 nM
- CC50 (LOX IMVI; [8]): 4.86 µM
- TGI (LOX IMVI; five-dose): 2.13 µM
- GI50 (OVCAR-5; [6]): 2040 nM
- GI50 (OVCAR-5; [7]): 1910 nM
- CC50 (OVCAR-5; [8]): 8.84 µM
- TGI (OVCAR-5; five-dose): 4.11 µM
- GI50 (A498; [6]): 35.5 µM
- GI50 (A498; [7]): 12.4 µM
- CC50 (A498; [8]): 52 µM
- TGI (A498; five-dose): 25.4 µM
- GI50 (MCF7; [6]): 1380 nM
- GI50 (MCF7; [7]): 1530 nM
- CC50 (MCF7; [8]): 7.29 µM
- TGI (MCF7; five-dose): 3.34 µM
- TGI (HBC-4): 3.0 µM
- GI50 (HBC-4; Homo sapiens, HBC4): 1700 nM
- CC50 (HBC-4; Homo sapiens, HBC4, read-out: LC50 (the source's name)): 5.5 µM
- TGI (HBC-5): 3.5 µM
- GI50 (HBC-5; Homo sapiens, HBC5): 1900 nM
- CC50 (HBC-5; Homo sapiens, HBC5, read-out: LC50 (the source's name)): 6.2 µM
- TGI (MDA-MB-231): 5.5 µM
- GI50 (MDA-MB-231; Homo sapiens): 1400 nM
- CC50 (MDA-MB-231; [9]): 63 µM
- TGI (HCT-15 [3]): 3.4 µM
- GI50 (HCT-15 [3]; Homo sapiens): 1800 nM
- CC50 (HCT-15 [3]; [9]): 6.3 µM
- TGI (NCI-H23 [4]): 2.9 µM
- GI50 (NCI-H23 [4]; Homo sapiens): 1100 nM
- CC50 (NCI-H23 [4]; [9]): 8 µM
- TGI (NCI-H226): 3.4 µM
- GI50 (NCI-H226; Homo sapiens): 1600 nM
- CC50 (NCI-H226; [9]): 7.3 µM
- TGI (A549): 41.0 µM
- GI50 (A549; Homo sapiens): 19 µM
- CC50 (A549; [9]): 89 µM
- TGI (DMS114): 1.8 µM
- GI50 (DMS114; Homo sapiens, DMS-114): 500 nM
- CC50 (DMS114; Homo sapiens, DMS-114, read-out: LC50 (the source's name)): 5 µM
- TGI (OVCAR-4): 2.9 µM
- GI50 (OVCAR-4; Homo sapiens): 1500 nM
- CC50 (OVCAR-4; [9]): 5.5 µM
- TGI (RXF-631L): 4.9 µM
- GI50 (RXF-631L; Homo sapiens): 2300 nM
- CC50 (RXF-631L; [9]): 12 µM
- TGI (ACHN): 3.8 µM
- GI50 (ACHN; Homo sapiens): 1900 nM
- CC50 (ACHN; [9]): 7.6 µM
- TGI (MKN7): 3.7 µM
- GI50 (MKN7; Homo sapiens, MKN-7): 1100 nM
- CC50 (MKN7; Homo sapiens, MKN-7, read-out: LC50 (the source's name)): 17 µM
- TGI (DU-145): 3.5 µM
- GI50 (DU-145; Homo sapiens): 2000 nM
- CC50 (DU-145; [9]): 6.1 µM
- nuclear translocation of the NF-κB p65 subunit [5]: significantly capable of preventing the nuclear translocation of the NF-κB p65 subunit
